{"source": "patent US8501753B2", "about": "“Useful pharmaceutical salts of 7-[(3R, 4R)-3-Hydroxy-4-hydroxymethyl-pyrrolidin-1-ylmethyl]-3, 5-dihydro-pyrrolo [3, 2-D] pyrimidin-4-one” (BioCryst Pharmaceuticals, Inc., priority 2009, dated 2013)", "assay": "Water sorption/desorption by dynamic vapor sorption (DVS)", "assay_type": "physicochemical", "settings": "water sorption/desorption chamber", "text": "Table 4 provides a summary of other solid state data collected for the monohydrate salts of compound 1 described in Examples 33-39. The temperature at which the salts dehydrated per DSC is shown in column 2. The percent weight loss as determined by TGA is shown in column 3; the weight loss approximated theoretical weight loss.", "data": [{"smiles": "O.O.O=C(O)CCC(=O)O.O=c1[nH]cnc2c(CN3CC(O)C(CO)C3)c[nH]c12.O=c1[nH]cnc2c(CN3CC(O)C(CO)C3)c[nH]c12", "note": "(stereo not shown) [Hemisuccinate]", "values": [{"measurement": "Weight gain from 0 to 20% RH from DVS", "result": 5.44}, {"measurement": "Weight gain from 0 to 90% RH from DVS", "result": 6.04}]}, {"smiles": "O.O.O=C(O)CC(O)C(=O)O.O=c1[nH]cnc2c(CN3CC(O)C(CO)C3)c[nH]c12.O=c1[nH]cnc2c(CN3CC(O)C(CO)C3)c[nH]c12", "note": "[Hemi-L-malate]", "values": [{"measurement": "Weight gain from 0 to 20% RH from DVS", "result": 0.87}, {"measurement": "Weight gain from 0 to 90% RH from DVS", "result": 5.68}]}]}
